According to US20100130408A1, “USE OF MODIFIED CYCLOSPORINS” (priority 2006, published 2010):

Columns and labels:
[1] = biological target: T1, human recombinant cyclophilin (Homo sapiens, UniProt P62937); assay: competitive ELISA, cyclophilin on coated BSA-cyclosporin A, reference cyclosporin A; conditions: scale: log10
[2] = biological target: T1, human recombinant cyclophilin; assay: competitive ELISA cyclophilin binding test (Binding Ratio); conditions: log to the base 10 of IC50 test compound / IC50 cyclosporin A
Protocol: A cyclosporin is considered as binding to cyclophilin if it binds to human recombinant cyclophilin at least one fifth as well as does cyclosporin A in the competitive ELISA test described by Quesniaux in Eur. J. Immunol. 1987 17 1359-1365. In this test, the cyclosporin to be tested is added during the incubation of cyclophilin with coated BSA-cyclosporin A and the concentration required to give a 50% inhibition of the control reaction without competitor is calculated (IC50). The results are expressed as the Binding Ratio (BR), which is the log to the base 10 of the ratio of the IC50 of the test compound and the IC50 in a simultaneous test of cyclosporin A itself.

Balb/c spleen cells = assay: Mixed Lymphocyte Reaction (MLR); format: cell-based, mice; conditions: percentage of the activity relative to Cyclosporin A
Protocol: A cyclosporin is considered to be non-immunosuppressive when it has an activity in the Mixed Lymphocyte Reaction (MLR) of no more than 5%, preferably no more than 2%, that of cyclosporin A. The Mixed Lymphocyte Reaction is described by T. Meo in “Immunological Methods”, L. Lefkovits and B. Peris, Eds., Academic Press, N.Y. pp. 227-239 (1979). Spleen cells (0.5×106) from Balb/c mice (female, 8-10 weeks) are co-incubated for 5 days with […] irradiated (2000 reds) or mitomycin C treated spleen cells from CBA mice (female, 8-10 weeks). The irradiated allogeneic cells induce a proliferative response in the Balb/c spleen cells which can be measured by labeled precursor incorporation into the DNA. […] The IC50 found for the test compound in the MLR is compared with that found for cyclosporin A in a parallel experiment. In addition, non-immunosuppressive cyclosporins lack the capacity of inhibiting CN and the downstream NF-AT pathway.

HSCs = conditions: cited from earlier work
HCV = conditions: Watashi et al., Hepatology (2003); cited from earlier work

T1 sequence (P62937 whole entry): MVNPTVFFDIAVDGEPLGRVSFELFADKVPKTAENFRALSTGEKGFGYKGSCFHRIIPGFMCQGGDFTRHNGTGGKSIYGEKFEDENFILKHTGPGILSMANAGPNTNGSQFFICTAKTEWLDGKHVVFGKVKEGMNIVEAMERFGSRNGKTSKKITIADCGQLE

[8'-hydroxy-MeBmt]^1-Ciclosporin (peptide)
Binding Ratio (BR) [1]: 0.35

[MeVal]^5-Ciclosporin
Binding Ratio (BR) [2]: 0.4
IR = Immunosuppressive Ratio (Balb/c spleen cells): 5.3%

[y-hydroxy-MeLeu]^4-Ciclosporin
Binding Ratio (BR) [2]: 0.4
IR = Immunosuppressive Ratio (Balb/c spleen cells): < 1%

C=CC[C@@H]1/C=C(\C)C[C@H](C)C[C@H](OC)[C@H]2O[C@@](O)(C(=O)C(=O)N3CCCC[C@H]3C(=O)O[C@H](/C(C)=C/[C@@H]3CC[C@@H](O)[C@H](OC)C3)[C@H](C)[C@@H](O)CC1=O)[C@H](C)C[C@@H]2OC [tacrolimus]
reduction of collagen production (HSCs; 12.5 nM (10 ng/ml), previously reported in Nakamuta et al): does not significantly reduces collagen production
cell growth and collagen production in HSCs (HSCs; previous evaluation of immunosuppressive drugs): did not have such effects
replication of HCV in vitro (HCV): did not show this effect

[Ethyl-Val]^4-Ciclosporin
Binding Ratio (BR) [2]: 0
IR = Immunosuppressive Ratio (Balb/c spleen cells): < 2%

[MeVal]^4-Ciclosporin (peptide)
Binding Ratio (BR) [1]: 0.1

[8′-hydroxy-MeBmt]^1-Ciclosporin
Binding Ratio (BR) [2]: 0.35
IR = Immunosuppressive Ratio (Balb/c spleen cells): 1.8%

[Ethyl-Val]^4-Ciclosporin (peptide)
Binding Ratio (BR) [1]: 0

[y-hydroxy-MeLeu]^4-Ciclosporin (peptide)
Binding Ratio (BR) [1]: 0.4

[Ethyl-lle]^4-Ciclosporin
Binding Ratio (BR) [2]: 0.1
IR = Immunosuppressive Ratio (Balb/c spleen cells): < 2%

[Melle]^4-Ciclosporin (peptide)
Binding Ratio (BR) [1]: -0.2

[y-hydroxy-MeLeu]^9-Ciclosporin (peptide)
Binding Ratio (BR) [1]: 0.15

[MeAla]^6-Ciclosporin
Binding Ratio (BR) [2]: −0.4
IR = Immunosuppressive Ratio (Balb/c spleen cells): 3.2%

[Ethyl-lle]^4-Ciclosporin (peptide)
Binding Ratio (BR) [1]: 0.1

[y-hydroxy-MeLeu]^9-Ciclosporin
Binding Ratio (BR) [2]: 0.15
IR = Immunosuppressive Ratio (Balb/c spleen cells): 2.9%

[dihydro-MeBmt]^1-[y-hydroxy-MeLeu]^4-Ciclosporin (peptide)
Binding Ratio (BR) [1]: 0.1

[MeVal]^4-Ciclosporin
Binding Ratio (BR) [2]: 0.1
IR = Immunosuppressive Ratio (Balb/c spleen cells): < 1%

[MeAla]^6-Ciclosporin (peptide)
Binding Ratio (BR) [1]: -0.4

[MeVal]^5-Ciclosporin (peptide)
Binding Ratio (BR) [1]: 0.4

[dihydro-MeBmt]^1-[y-hydroxy-MeLeu]^4-Ciclosporin
Binding Ratio (BR) [2]: 0.1
IR = Immunosuppressive Ratio (Balb/c spleen cells): < 1%

[Melle]^4-Ciclosporin
Binding Ratio (BR) [2]: −0.2
IR = Immunosuppressive Ratio (Balb/c spleen cells): < 1%
